Data on 1 compound can be found in patent publication US20220089602A1, “COMPOUNDS THAT INDUCE FERROPTIC CELL DEATH” (The Board of Trustees of the University of Illinois, priority 2019, published 2022).

As a reminder, the IC50 is the midpoint of a concentration-inhibition curve. The low end stands for greater potency in that assay, the high end for weaker potency in that assay.

For one data set, the target named is T1, thioredoxin (Homo sapiens, UniProt P10599).
T1 construct: endogenous in cells
Nature of the data set: Thioredoxin activity assay in cell lysate. The data set is classed as cell-based. To be noted: 30 min treatment, HCT 116 cells; versus PMX464 and PX-12 (50 μM). As to the method:
HCT 116 cells (1×10^6 cells/flask) were treated with DMSO, 10 μM ferroptocide, 50 μM PMX464, or 50 μM PX-12 for 30 min. Cells were harvested by centrifugation, resuspended in the assay buffer and lysed via sonication. For each condition, 20 μg of cell lysate was used to measure the activity thioredoxin activity following manufacturer' protocol (Cayman Chemical, Fluorescent Thioredoxin Activity Assay kit #20039) in a 96-well black-walled plate. For in vitro studies, human thioredoxin (10 μL of 0.2 μM solution) was used in addition to thioredoxin reductase (10 μL of 1.0 μM solution), 1 μl of DMSO, ferroptocide, […], or PX-12 at indicated concentrations, 5 μL of NADPH (diluted according to manufacturer's instructions), and assay buffer to a final volume of 75 μL. The plate was incubated at 37° C. for 30 min followed by immediate addition of 20 μL fluorescent substrate per each well (diluted as instructed in the assay kit). Fluorescence was monitored over 1 hr at 520 nm after excitation at 480 nm in a SpectraMax M3 (Molecular Devices) instrument at 37° C.

A short description of data set [1]: In vitro glutathione assay (LC-MS). To be noted: 100 μM compound, 5 mM glutathione, PBS, 37° C. It is filed as physicochemical. As to the method:
To an eppendorf tube added, 245 μL of 1×PBS, 5 μL of 10 mM DMSO stock of ferroptocide or P23 and 250 μL of reduced GSH (5 mM final concentration). Reactions were vortexed briefly and incubated at 37° C. Adduct formation was monitored at the indicated time points (0, 0.5, 1, 2, 3, 24 hr) by mixing an aliquot of 50 μL from the reaction mixture with 50 μL of MeOH before LC/MS analysis.

A further data set deals with ES-2 cell line. Nature of the data set: 72 hr cell viability assay (Alamar Blue), dose response IC50. It is filed as cell-based. To be noted: Homo sapiens; 72 hr, ES-2 cell line, Alamar Blue fluorescence, mean ± s.e.m., n ≥ 3. As for the experimental part:
40 μL of media was added to each well of a 384-well tissue culture-treated plate. 3×100 nL of compound in DMSO was then pin-transferred from compound storage plates (2 mM stocks) into media-containing wells using the Platemate Plus at the UIUC High Throughput Screening Facility. A 100,000 cells/mL suspension of ES-2 cells was prepared, and 10 μL was added to each well for a final concentration of 1000 cells/well. Doxorubicin (100 μM final) was used as a positive control. Plates were sealed with gas-permeable seals and incubated at 37° C. for 72 h. After incubation, 5 μL of Alamar blue (440 μM resazurin in sterile PBS) was added and allowed to incubate for 3-4 h, until visible color change occurred. Fluorescence was measured in a Molecular Devices SpectraMax 3 (excitation=555 nm, emission=585 nm, emission cutoff=570 nm).
To a 384-well plate, 40 μL of 1.25× compound dilution or 1.25% DMSO-containing media was added (final volume of 1% DMSO). Concentrations of compounds tested were 100 μM to 100 nM. On each plate at least 3 technical replicates per compound were performed. Next, 10 μL of a 100,000 cells/mL suspension was added to each well, yielding a final concentration of 1,000 cells/well. To three wells in column 2 was added 1 μL of 10 mM doxorubicin (final concentration of 200 μM) as positive control of cell death. Plates were sealed with gas-permeable seals and incubated at 37° C. for 72 h. At that time, 5 μL of Alamar blue (440 μM resazurin in sterile PBS) was added and plates were incubated for 3-4 hours. Fluorescence was read on a Molecular Devices SpectraMax 3 (excitation=555 nm, emission=585 nm, emission cutoff=570 nm). Wells were normalized to the average of untreated wells (0% cell death). The data were plotted as compound concentration versus percent dead cells and fitted to a logistic-dose response curve using OriginPro 2015 (OriginLab, Northampton, Mass.). The data were generated in triplicate, and IC50 values are reported as the average of three separate experiments along with standard error of the mean.
(In general: The colour change of resazurin is a common sign of viable cells or microbes.)

For a further data set, the target named is T2, GPX4 (Homo sapiens, UniProt P36969).
T2 construct: endogenous in cells; host or cells: ES-2 cells
Nature of the data set: GPX4 LC-MS based activity assay (PCOOH). To be noted: 10 μM, 1 hr, ES-2 cells. The data set is classed as cell-based. As for the experimental part: 1 million ES-2 cells/well, 6 well plate were allowed to attach overnight and then treated with DMSO, 10 μM of each compound: ferroptocide, raptinal, and RSL3 for 1 hr. GPX4 enzymatic activity assay was performed with a GPX4 specific substrate, phosphatidylcholine hydroperoxide (PC—OOH) as described previously with minor modifications (Cell 156, 317-331, (2014)). PCOOH was prepared as reported by Roveri and coworkers (Enzymol. Vol. 233 202-212 (Academic Press, 1994)) but using soybean lipoxidase type I-B (L7395, Milipore Sigma). Cells were washed with PBS and lysed by liquid nitrogen freeze-thaw method in the assay buffer (137 mM NaCl, 2.7 mM KCl, 8 mM Na2HPO4, 2 mM KH2PO4, 1 mM EDTA, 0.1 mM DFO; pH 7.4). Cell lysates were cleared by centrifugation at 14,000 rpm for 10 min at 4° C. Bradford assay was used to determine protein concentration; 200 μg of protein or assay buffer (PCOOH control sample) was mixed with 10 μL PC—OOH in methanol, 5 mM reduced glutathione, and assay buffer to a final reaction volume of 500 μL. The reaction mixture was incubated at 37° C. for 15 mins and extracted with 250 μL chloroform:methanol (2:1) solution. The lipid extract was evaporated under nitrogen and re-dissolved in 100% methanol before injecting into the LC-MS/MS instrument for PCOOH detection.

Molecules are shown by their SMILES. “Also recorded” adds a separate entry of the source.

T2 sequence (P36969 whole entry): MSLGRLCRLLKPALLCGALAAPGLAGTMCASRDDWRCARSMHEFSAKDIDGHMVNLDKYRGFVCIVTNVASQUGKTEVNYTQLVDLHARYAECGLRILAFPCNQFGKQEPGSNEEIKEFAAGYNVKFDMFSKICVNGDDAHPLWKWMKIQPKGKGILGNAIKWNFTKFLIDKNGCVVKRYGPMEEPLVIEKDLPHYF
T1 sequence (P10599 whole entry): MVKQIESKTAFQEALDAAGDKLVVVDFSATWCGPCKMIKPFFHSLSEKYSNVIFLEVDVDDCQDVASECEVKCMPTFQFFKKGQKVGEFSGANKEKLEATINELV

For `C[C@@H]1CC[C@@]23C[C@H](O)C(=O)[C@@]2(O)[C@]1(C)[C@H](OC(=O)CCl)C[C@@H](C1=CCn2c(=O)n(-c4ccccc4)c(=O)n2C1)[C@@H]3C` [Compound P18, ferroptocide], the “thioredoxin activity in cell lysate” value on thioredoxin is recorded as “significantly reduced the activity of thioredoxin”. For the same compound, the “reactivity with excess glutathione (in words)” value in data set [1] was “reacts slowly”. Further, the “Compound remaining (%)” value came to 95.1% in data set [1] (0.5 hr); 81.8% in data set [1] (1 hr); 66.8% in data set [1] (2 hr, listed as Ferroptocide); 67% in data set [1] (2 hr, listed as ferroptocide); 61.9% in data set [1] (3 hr); 27.5% in data set [1] (24 hr). Besides, the “GSH-Ferroptocide adduct (%)” value came to 4.9% in data set [1] (0.5 hr); 18.2% in data set [1] (1 hr); 33.2% in data set [1] (2 hr); 38.1% in data set [1] (3 hr); 72.5% in data set [1] (24 hr). For the same compound, in the data set on ES-2 cell line, half-maximal inhibition (IC50) was put at 1600 nM. Moreover, on GPX4, the GPX4 inhibition entry is recorded as “did not result in GPX4 inhibition; also recorded: does not cause direct GPX4 inhibition”.
